Experimental data: US12569565B2, “Compositions and methods for the treatment of viral infections” (Cidara Therapeutics, Inc., priority 2018, dated 2026)
pEC50: −log10 of the molar value. Several values for one entry are separate records, joined by “and”; a condition that tells them apart may be missing. Equal values may be shown once. Read-outs that look alike come from different tables or passages of the source.

What was measured:
[1] = system: A/Puerto Rico/08/1934 (PR8), H1N1; type: in vivo, female BALB/c mice; conditions: for % Survival: 10 days
[2] = system: Influenza B/Brisbane/60/2008; parameters: species or system female BALB/c mice; conditions: mouse, in vivo
[3] = system: Influenza A/Puerto Rico/8/1934 (H1N1); parameters: species or system female BALB/c mice; conditions: mouse, in vivo
IAV H1N1 A/Texas/36/91 = system: IAV H1N1 A/Texas/36/91; parameters: species or system female BALB/c mice; conditions: mouse, in vivo
[4] = system: influenza A/WSN/1933 (H1N1); assay: CPE assay at different multiplicities of infection (Example 94); type: cell-based, influenza A virus; conditions: read-out: EC50 H1N1 A/WSN/1933 (CPE in MDCK cells)
[5] = system: INFV A H3N2 A/Hong Kong/1/68; assay: Lethal mouse influenza model, Study #2; type: in vivo, female BALB/c mice; conditions: 20 mg/kg PO B.I.D for 5 days from 8 h post infection
[6] = system: H1N1 A/Netherlands/602/2009; type: cell-based, influenza A virus
[7] = 1 mg/mL in 1xPBS, over a week at 60° C.; HPLC 240 nm
[8] = system: INFV A H1N1 A/Texas/36/91; assay: Lethal mouse influenza model, Study #3 (dosing 28 days before challenge); type: in vivo, female BALB/c mice; conditions: 20 mg/kg PO twice daily 5 days from 8 h post infection
Excerpt: The experiment comprised 7 groups of 5 mice. At day 0, all mice were challenged with 1×LD90 H1N1 A/Texas/36/91. Groups 1-6 received treatment IV, 28 days before challenge (Table 12). Vehicle (PBS) was included as an additional negative control. […] All mice were monitored for survival (FIGS. 31A-31F) for 15 days after challenge.

[9] = system: INFV A H1N1 A/Texas/36/91; assay: Lethal mouse influenza model, Study #4 (treatment window); type: in vivo, female BALB/c mice
Excerpt: The experiment comprised 13 groups of 5 mice. At day 0, all mice were challenged with 1×LD90 H1N1 A/Texas/36/91. […] Vehicle (PBS) and Fc only were included as negative controls. […] All mice were monitored for survival (FIGS. 32A-32F) for 15 days after challenge.

[10] = system: INFV A H1N1 A/Texas/36/91; assay: Lethal mouse influenza model, Study #1; type: in vivo, female BALB/c mice; conditions: 20 mg/kg B.I.D PO 5 days from 8 h post infection
INFV CA/09 virus = type: cell-based, influenza virus
[11] = system: Influenza A virus (INFV CA/09); type: cell-based
INFV A (A/CA/09 H1N1) = type: cell-based, influenza A virus
MDCK cells = conditions: four days post treatment, dilutions starting at 10 μM
INFV B (B/Brisbane) = type: cell-based, influenza B virus

In the case of `CCOC(=O)C1=C[C@@H](OC(CC)CC)[C@H](NC(C)=O)[C@@H](N)C1` [Oseltamivir, oseltamivir], the “% Survival” value [1] was 20%, the Body weights [2] was 89 gm and 85 gm and 79 gm and 100 gm and 98 gm and 97 gm and the survival [2] was 40%. For the same molecule, the “Log reduction (PFU/mL)” value [3] was 0.24 and 0.52, the “% Survival (Day 14)” value (IAV H1N1 A/Texas/36/91) was 100% and the pEC50 ([4]; MOI 0.001) was 6.28. It also gave a pEC50 ([4]; MOI 0.01) of 5.72, a pEC50 ([4]; MOI 0.1) of under 5.00 and a pEC50 ([4]; MOI 1) of under 5.00. The “% Survival” value [5] was 80% and the “EC100 (CPE in MDCK cells)” value [6] was about 1000 nM.

Work on `C#CCOCCOCCOCCOCCNC(=O)O[C@@H]([C@@H]1OC(C(=O)O)=C[C@H](NC(=N)N)[C@H]1NC(C)=O)[C@H](O)CO` [Int-4] yielded a degredation [7] of 15%.

Work on `O=C1c2c(O)c(=O)ccn2N([C@@H]2c3ccccc3SCc3c2ccc(F)c3F)[C@@H]2COCCN12` [baloxavir] yielded a pEC50 ([4]; Influenza A virus, MDCK, MOI 0.001) of 8.30, a pEC50 ([4]; Influenza A virus, MDCK, MOI 0.01) of 8.40 and a pEC50 ([4]; Influenza A virus, MDCK, MOI 0.1) of 7.10. The pEC50 ([4]; Influenza A virus, MDCK, MOI 1) was under 7.00.

In the case of `CCOC(=O)C1=C[C@@H](OC(CC)CC)[C@H](NC(C)=O)[C@@H](N)C1` [Oseltamivir phosphate], the survival [8] was “survived”, the survival ([9]; 20 mg/kg PO bid × 5 days initiated at 48 hrs post-infection) was 0% and the survival ([9]; 20 mg/kg PO bid × 5 days initiated at 72 hrs post-infection) was 20%. For the same molecule, the “Mean Survival” value [5] was 15 days, the “% Survival” value [10] was 100% and the “Mean Survival” value [10] was 15.

`CC(=O)N[C@H]1[C@H]([C@H](O)[C@H](O)CO)OC(C(=O)O)=C[C@@H]1N=C(N)N` [Zanamivir, zanamivir] showed a pEC50 (INFV CA/09 virus) of 6.33, a pEC50 [11] of 6.30 and a pEC50 (INFV A (A/CA/09 H1N1)) of 6.58. For the same molecule, the pEC50 ([4]; MOI 0.001) was 6.86, the pEC50 ([4]; MOI 0.01) was 6.03 and the pEC50 ([4]; MOI 0.1) was under 5.00. For the same molecule, the pEC50 ([4]; MOI 1) was under 5.00, the CC50 (MDCK cells) was over 10000 nM and the pEC50 (INFV B (B/Brisbane)) was 6.42.

For `CC(=O)N[C@H]1[C@H]([C@H](OCC(=O)NCCCCNCCCCNC(=O)CO[C@@H]([C@@H]2OC(C(=O)O)=C[C@H](NC(=N)N)[C@H]2NC(C)=O)[C@H](O)CO)[C@H](O)CO)OC(C(=O)O)=C[C@@H]1NC(=N)N` [Int-11], the “% Survival” value [1] was 0%, the “% Survival” value ([1]; 15 mg/kg) was 100% and the “delay in death relative to vehicle and hIgG1 Fc only controls” value ([1]; mouse, in vivo) was at most 2 days. For the same molecule, the “greater cumulative dose required for efficacy equivalent to conjugate 6 (mass basis)” value ([1]; mouse, in vivo) was 500 ×.

With `C#CCOCCOCCOCCOCCN(C)C(=O)O[C@@H]([C@H]1OC(C(=O)O)=C[C@@H](NC(=N)N)[C@@H]1NC(C)=O)[C@H](O)CO` [Int-80] the degredation [7] was “less than 1%”.
